Experimental findings from article PMC8950173 (Pharmaceuticals, 2022) are described below.

The nature of series [1]: In vivo metabolism (radio-RP-HPLC and radio-MLC of plasma, brain, urine). Set-up: species or system CD-1 mice. The following applies: 30 min p.i. As to the method: The radiotracer [^18F]BA3 (~30 MBq in 200 µL isotonic saline) was administered via the tail vein in non-anesthetized female CD-1 mice (n = 2). At 30 min p.i., the animals were anesthetized by isoflurane inhalation and blood was sampled from the retro-orbital plexus. After cervical dislocation, urine was obtained and the brain was isolated. Plasma was obtained by centrifugation of the blood sample (8000× g, 2 min), and the brain was homogenized in ~1 mL distilled water on ice using a glass/PTFE Potter Homogenizer (Potter S Homogenizer, B. Braun Melsungen AG, Melsungen, Germany).
Protein precipitation was performed by addition of an ice-cold MeCN/H2O mixture (9:1, v/v) in a ratio of 4:1 (v/v) of organic solvent to plasma or brain homogenate, respectively. The samples were vortexed for 3 min, equilibrated on ice for 3 min, and centrifuged for 10 min at 10,000 rpm. The precipitates were washed with 100 μL of the solvent mixture and subjected to the same procedure. The combined supernatants were concentrated at 70 °C under argon flow to a final volume of approximately 100 μL and analysed by analytical radio-RP-HPLC with a gradient system (see quality control section). The peak corresponding to the radiotracer in the radio-chromatogram was identified by co-injecting the sample with the reference compound BA3. To determine the percentage of activity in the supernatants compared with total activity, aliquots of each step as well as the precipitates were quantified by an automated gamma counter (1480 WIZARD, Perkin Elmer, Turku, Finland). For plasma and brain samples recoveries of 97% and 95%, respectively, of total activity were obtained.
For the preparation of the MLC samples, 20 µL of mouse plasma was dissolved in 200 µL of an aqueous 200 mM sodium dodecyl sulfate (SDSaq) solution and injected into the MLC system. For brain samples, 400 µL brain homogenate was dissolved in 800 µL 200 mM SDSaq, heated for 5 min at 70 °C and centrifuged for 5 min at 10,000 rpm. The MLC system was built up as earlier described. Separations were performed by using a Reprosil-Pur C18-AQ column (250 × 4.6 mm, 10 µm + 10 mm pre-column) and an eluent mixture of EtOH/100 mM SDSaq/25 mM (NH4)2HPO4 in gradient mode (0–10 min at 100% 100 mM SDSaq, 10–15 min up to 10% EtOH, 15–20 min at 10% EtOH, 20–21 min up to 100% 100 mM SDSaq; 21–30 min at 100% 100 mM SDSaq) at a flow rate of 1.0 mL/min.

For series [2], the target named is T1, P-glycoprotein (P-gp) efflux transporter (Mus musculus, UniProt P21447).
T1 construct: from tissue; host or cells: living CD-1 mice, brain / blood-brain barrier
T1 sequence (P21447 whole entry): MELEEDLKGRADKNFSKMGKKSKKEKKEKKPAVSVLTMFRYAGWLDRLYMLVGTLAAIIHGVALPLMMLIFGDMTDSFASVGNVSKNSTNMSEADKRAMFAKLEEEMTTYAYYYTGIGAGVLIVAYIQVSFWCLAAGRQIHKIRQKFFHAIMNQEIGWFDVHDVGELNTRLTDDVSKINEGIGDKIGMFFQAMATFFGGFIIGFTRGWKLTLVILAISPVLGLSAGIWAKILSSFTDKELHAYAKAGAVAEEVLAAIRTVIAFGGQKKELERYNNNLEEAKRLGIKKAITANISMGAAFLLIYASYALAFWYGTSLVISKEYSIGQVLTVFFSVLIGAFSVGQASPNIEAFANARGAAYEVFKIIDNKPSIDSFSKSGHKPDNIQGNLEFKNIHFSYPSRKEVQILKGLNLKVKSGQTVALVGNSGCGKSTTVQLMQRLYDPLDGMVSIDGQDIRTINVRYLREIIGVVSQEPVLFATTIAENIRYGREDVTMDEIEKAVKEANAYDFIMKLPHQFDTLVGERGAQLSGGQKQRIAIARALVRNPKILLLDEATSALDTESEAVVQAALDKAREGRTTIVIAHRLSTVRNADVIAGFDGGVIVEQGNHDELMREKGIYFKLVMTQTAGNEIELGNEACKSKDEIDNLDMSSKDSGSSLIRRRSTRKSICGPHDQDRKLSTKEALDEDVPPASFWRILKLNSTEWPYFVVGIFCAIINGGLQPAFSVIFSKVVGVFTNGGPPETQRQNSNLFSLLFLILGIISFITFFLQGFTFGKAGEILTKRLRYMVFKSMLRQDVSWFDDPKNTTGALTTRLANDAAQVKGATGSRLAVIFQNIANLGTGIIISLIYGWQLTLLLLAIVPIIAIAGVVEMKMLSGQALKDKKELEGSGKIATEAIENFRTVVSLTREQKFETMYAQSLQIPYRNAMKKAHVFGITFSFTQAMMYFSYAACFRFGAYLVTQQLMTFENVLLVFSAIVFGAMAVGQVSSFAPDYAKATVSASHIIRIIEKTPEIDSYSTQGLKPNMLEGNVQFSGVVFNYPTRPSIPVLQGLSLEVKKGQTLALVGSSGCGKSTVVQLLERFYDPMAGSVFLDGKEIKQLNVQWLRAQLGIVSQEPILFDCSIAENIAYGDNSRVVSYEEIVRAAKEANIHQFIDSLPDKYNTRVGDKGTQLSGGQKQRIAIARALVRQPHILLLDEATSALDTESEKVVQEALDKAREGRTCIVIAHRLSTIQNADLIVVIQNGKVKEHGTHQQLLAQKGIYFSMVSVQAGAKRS
Kind of series: P-gp efflux transporter PET study with cyclosporine A pre-treatment. The format is in vivo. The following applies: for initial brain uptake: n = 2. As to the method:
(§1) For the time of the experiments, female CD-1 mice (n = 6; 8–15 weeks; 29–43 g) were kept in a dedicated climatic chamber with free access to water and food under a 12:12 h dark:light cycle at a constant temperature (24 °C). The animals were anaesthetized (Anaesthesia Unit U-410, agntho’s, Lidingö, Sweden) with isoflurane (2.0%, 300 mL/min) delivered in a 60% oxygen/40% air mixture (Gas Blender 100 Series, MCQ instruments, Rome, Italy) and their body temperature maintained at 37 °C with a thermal bed system. For baseline studies [^18F]BA3 was injected into the tail vein (n = 2; 6.0 ± 0.6 MBq in 150 µL isotonic saline; 9.2 ± 0.7 nmol/kg; Am: 21 GBq/μmol, EOS) followed by a dynamic 60 min PET/MR scan (Mediso nanoScan®, Budapest, Hungary). Permeability-glycoprotein efflux transporter studies consisted in pre-treatment via i.v. injection of cyclosporine A (50 mg/kg in NaCl/DMSO/kolliphor, 7:1:2, v/v; n = 2) or of vehicle (NaCl/DMSO/kolliphor, 7:1:2, v/v; n = 2) 30 min prior to [^18F]BA3 (6.0 ± 0.9 MBq; 4.9 ± 0.7 nmol/kg; Am: 32–37 GBq/μmol, EOS). Each PET image was corrected for random coincidences, dead time, scatter and attenuation (AC), based on a whole body (WB) MR scan. The reconstruction parameters for the list mode data were 3D-ordered subset expectation maximization (OSEM), 4 iterations, 6 subsets, energy window: 400–600 keV, coincidence mode: 1–5, ring difference: 81. The mice were positioned prone in a special mouse bed (heated up to 37 °C), with the head fixed to a mouth piece for the anaesthetic gas supply with isoflurane in 40% air and 60% oxygen. The PET data were collected by a continuous WB scan during the entire investigation. Following the 60 min PET scan a T1 weighted WB gradient echo sequence (TR/TE: 20/6.4 ms, NEX: 1, FA: 25, FOV: 64 × 64 mm, Matrix: 128 × 128, STh: 0.5 mm) was performed for AC and anatomical orientation. […]. The respective brain regions were identified using the mouse brain atlas template Ma-Benveniste-Mirrione-FDG. The activity data are expressed as mean SUV of the overall ROI.

Series [3] in a line: Dynamic PET/MR scan, brain uptake, baseline. The format is in vivo. As for the experimental part:
as §1

Where [4] appears, read: radio-RP-HPLC, individual values of 2 mice.

On to `CC([18F])C(=O)NCc1ccc(C(=O)Nc2cc(-c3ccsc3)ccc2N)cc1` (centres unmarked) [[^18F]BA3], for which, in series [1] (radio-MLC, mean, n = 2), the “intact radiotracer, share of total activity in brain” value is on record as roughly 24% and the “intact radiotracer, share of total activity in plasma” value is given as “about 6%”. For the same compound, the “intact radiotracer in urine” value in series [1] (radio-RP-HPLC and radio-MLC) is reported as “not detected”. In series [1] (setting [4]), the “Brain [%] of activity” value is on record as 20 / 23 and the “Plasma [%] of activity” value is given as 3 / 7. In series [1] (radio-RP-HPLC, mean, n = 2), the “share of total activity in brain” value is reported as 21% and the “share of total activity in plasma” value was “about 5%”. Also, in series [2] (concluded from cyclosporine A pre-administration), the P-gp substrate status entry is “substrate of P-gp”. In addition, the “increase of initial brain uptake by cyclosporine A” value in series [2] (cyclosporine A vs vehicle pre-administration) is “about factor two”. The initial brain uptake in series [2] (pre-administration of cyclosporine A 50 mg/kg i.v. 30 min before tracer) is listed as 0.42 SUV. Further, the initial brain uptake in series [2] (pre-administration of vehicle 30 min before tracer) is recorded as 0.18 SUV. For the same compound, in series [3] (at 0.8 min, i.v.), the “brain peak standardized uptake value” is listed as ~ 0.16 SUV. Besides, the brain uptake plateau in series [3] (at 15 min, i.v.) was ~ 0.22 SUV. Besides, the “brain uptake after washout” value in series [3] (at 60 min after i.v. administration) is on record as ~ 0.16 SUV.
